Source: publication PMC13303085, “Succinate dehydrogenase loss suppresses pyrimidine biosynthesis via succinate-mediated inhibition of aspartate transcarbamylase” (Nature metabolism, 2026)
One block for each molecule: values may come before it.

Key:
[1] = target: T1, aspartate transcarbamylase (ATCase) domain of CAD (Homo sapiens, UniProt P27708); assay: biochemical
T1 sequence (P27708 1915-2225): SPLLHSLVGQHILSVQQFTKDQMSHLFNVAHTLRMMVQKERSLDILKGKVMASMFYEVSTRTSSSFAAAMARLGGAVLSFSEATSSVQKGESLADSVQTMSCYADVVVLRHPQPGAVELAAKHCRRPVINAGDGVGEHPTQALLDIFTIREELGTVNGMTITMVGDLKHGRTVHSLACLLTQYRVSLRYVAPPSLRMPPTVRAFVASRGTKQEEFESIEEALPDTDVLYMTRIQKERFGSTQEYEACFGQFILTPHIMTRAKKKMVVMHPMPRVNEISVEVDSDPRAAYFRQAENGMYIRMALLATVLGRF

[2] = target: T1, aspartate transcarbamylase (ATCase) domain of CAD; assay: initial-rate kinetics of purified MBP-ATCase, aspartate titration in excess CP; assay type: biochemical; design: residues 1,915–2,225 of human CAD, N-terminal 6×His-tagged MBP fusion (MBP-ATCase)
[3] = target: T1, aspartate transcarbamylase (ATCase) domain of CAD; assay: colorimetric carbamoyl-aspartate formation assay with purified MBP-ATCase, CP titration at […] aspartate; assay type: biochemical; design: residues 1,915–2,225 of human CAD, N-terminal 6×His-tagged MBP fusion (MBP-ATCase)
[4] = target: T1, aspartate transcarbamylase (ATCase) domain of CAD; assay: initial-rate kinetics of purified MBP-ATCase, CP titration in excess aspartate (Michaelis-Menten); assay type: biochemical; design: residues 1,915–2,225 of human CAD, N-terminal 6×His-tagged MBP fusion (MBP-ATCase)
Text: initial-rate kinetics of purified MBP-ATCase, CP titration in excess aspartate (Michaelis-Menten) on aspartate transcarbamylase (ATCase) domain of CAD | relative initial enzymatic rates of MBP-ATCase in excess aspartate and a titration of CP.

[5] = target: the molecule itself; assay: SEC; affinity-purified MBP-ATCase on Superdex 200 16/600 in 20 mM Tris-HCl pH 7.2, 100 mM NaCl, 2% glycerol, 0.2 mM TCEP; trimer

IC50 [1]: 1350 µM
Molecule: O=C(O)CCC(=O)O [succinate]

Molecule: N[C@@H](CC(=O)O)C(=O)O [aspartate]
initial-rate kinetics of purified MBP-ATCase, aspartate titration in excess CP [2]: we measured initial enzymatic rates of MBP-ATCase in excess CP, a titration of aspartate, and three concentrations of succinate

Molecule: O=C(O)C[C@H](NC(=O)CP(=O)(O)O)C(=O)O [PALA]
colorimetric carbamoyl-aspartate formation assay with purified MBP-ATCase, CP ti [3]: initial rates were dose-dependently decreased with nanomolar doses of the classical ATCase inhibitor, PALA (N-phosphonacetyl-L-aspartate)

Molecule: NC(=O)OP(=O)(O)O [carbamoyl phosphate]
initial-rate kinetics of purified MBP-ATCase, CP titration in excess aspartate [4]: relative initial enzymatic rates of MBP-ATCase in excess aspartate and a titration of CP. This showed saturation kinetics

B1: ATCase domain of human CAD fused N-terminally to a 6×His-tagged maltose binding protein (MBP-ATCase) (domain or fragment, UniProt P27708 1915-2225, looked up)
chain: SPLLHSLVGQHILSVQQFTKDQMSHLFNVAHTLRMMVQKERSLDILKGKVMASMFYEVSTRTSSSFAAAMARLGGAVLSFSEATSSVQKGESLADSVQTMSCYADVVVLRHPQPGAVELAAKHCRRPVINAGDGVGEHPTQALLDIFTIREELGTVNGMTITMVGDLKHGRTVHSLACLLTQYRVSLRYVAPPSLRMPPTVRAFVASRGTKQEEFESIEEALPDTDVLYMTRIQKERFGSTQEYEACFGQFILTPHIMTRAKKKMVVMHPMPRVNEISVEVDSDPRAAYFRQAENGMYIRMALLATVLGRF
notes: Order of the construct: 6×His, SSG linker, MBP, two SSG linkers, TEV protease site, GS linker, CAD 1915-2225; in pET-28a(+); also called 6×His-tagged MBP-ATCase; human ATCase; source: E. coli BL21, autoinduction medium, purified (HisPur cobalt resin, SEC on Superdex 200); not shown: His6, N-terminal, kept; MBP, N-terminal, kept
stoichiometry N [5]: 3
